Results taken from patent US11840686B2, “Modulation of prekallikrein (PKK) expression” (Ionis Pharmaceuticals, Inc., priority 2013, dated 2023).
Strand notation (5' to 3'): a small letter for the sugar, then the base; units joined by * are phosphorothioate-linked, units joined directly phosphodiester-linked; [ ] holds rarer units or linkages, { } end groups; capitals alone tell only the bases. e = 2'-O-(2-methoxyethyl) (MOE); [5mC] = 5-methylcytosine; d = 2'-deoxy (DNA)

Columns and labels:
PKK protein = assay: Plasma PKK protein levels in human KLKB1 transgenic mice (Example 7); format: in vivo; settings: plasma, twice a week for 3 weeks
Method: (§1) Transgenic mice containing a 37,390 base pair fragment of the human KLKB1 gene sequence (chromosome 4: position 187148672-187179625, accession no: NC_000004.11) were treated with ISIS antisense oligonucleotides selected from studies described above, which were evaluated for efficacy in this model.
(§2) Groups of transgenic mice were injected subcutaneously twice a week for 3 weeks with 2.5 mg/kg/week, 5.0 mg/kg/week, 10 mg/kg/week or 20 mg/kg/week of ISIS 546232, ISIS 546251, ISIS 546254, ISIS 546343, ISIS 546828, ISIS 547455, ISIS 547457, ISIS 547927, and ISIS 548048. One group of transgenic mice was injected subcutaneously twice a week for 3 weeks with PBS. Mice were euthanized 48 hours after the last dose, and organs and plasma were harvested for further analysis.
Plasma PKK protein levels were evaluated in all groups. Results are presented as percent inhibition of PKK protein, relative to PBS control.

PKK mRNA = PKK mRNA in cynomolgus monkey liver (Example 8); format: in vivo; settings: 40 mg/kg s.c., loading then weekly to week 13; day 87 or 88, 48 h after final dose
Method: Cynomolgus monkeys were treated with ISIS antisense oligonucleotides selected from studies described above. Antisense oligonucleotide efficacy and tolerability were evaluated. The human antisense oligonucleotides tested are cross-reactive with the rhesus genomic sequence (GENBANK Accession No. NW_001118167.1 truncated from nucleotides 2358000 to 2391000 and designated herein as SEQ ID NO: 18).
On day 87 or 88, 48 hours after the final dose, RNA was extracted from liver tissue for real-time PCR analysis of PKK using primer probe set RTS3455 (forward sequence […], designated herein as SEQ ID NO: 23; reverse sequence […], designated herein as SEQ ID NO: 24; probe sequence […], designated herein as SEQ ID NO: 25). The results were normalized to the housekeeping gene, Cyclophilin. Results are presented as percent inhibition of PKK mRNA, relative to PBS control.

human PKK mRNA [1] = assay: Antisense inhibition of human PKK mRNA in HepaRG cells, 5,000 nM (Example 2); format: cell-based; settings: HepaRG cells, electroporation with 5,000 nM antisense oligonucleotide, approx. 24 hours, PKK mRNA by RT-PCR (RTS3454), relative to untreated control cells
Procedure, shortened: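 Chimeric MOE gapmers with full phosphorothioate backbones were tested once at 5,000 nM in electroporated HepaRG cells. After about 24 hours, quantitative PCR measured PKK mRNA relative to untreated control cells.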

human PKK mRNA [2] = assay: Dose-dependent antisense inhibition of human PKK in HepaRG cells, 0.19-5.00 uM (Example 5); format: cell-based
Procedure, shortened: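 PKK mRNA knockdown was measured by real-time PCR (primer probe set RTS3454) about 16 h after electroporating 20,000 HepaRG cells per well with oligonucleotide at four doses from 0.19 to 5.00 μM. Levels were adjusted to RIBOGREEN-measured total RNA, and IC50 values were calculated.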

human PKK mRNA [3] = assay: Human PKK mRNA in liver of human KLKB1 transgenic mice (Example 7); format: in vivo; settings: twice a week for 3 weeks
Method: as §1, §2
To evaluate the effect of ISIS oligonucleotides on target reduction, RNA was extracted from liver tissue for real-time PCR analysis of human PKK. Results are presented as percent inhibition of PKK mRNA, relative to PBS control.

[4] = HepaRG cells, electroporation, approximately 16 hours, Table 36
[5] = Table 34, HepaRG, electroporation, ~16 h

546251 (eG*eG*e[5mC]*eA*eA*dA*d[5mC]*dA*dT*dT*d[5mC]*dA*d[5mC]*dT*d[5mC]*e[5mC]*eT*eT*eT*eA) [compound 546251]
% inhibition of PKK protein levels in the transgenic mice relative to the PBS control (PKK protein; 2.5 mg/kg/week sc): 22%
% inhibition of PKK protein levels in the transgenic mice relative to the PBS control (PKK protein; 5 mg/kg/week sc): 30%
% inhibition of PKK protein levels in the transgenic mice relative to the PBS control (PKK protein; 10 mg/kg/week sc): 52%
% inhibition of PKK protein levels in the transgenic mice relative to the PBS control (PKK protein; 20 mg/kg/week sc): 69%
% inhibition of PKK mRNA in the cynomolgus monkey liver relative to the PBS control (PKK mRNA): 90%
% inhibition (human PKK mRNA [1]; Table 7): 92%
percent inhibition of PKK at 0.19 μM (human PKK mRNA [2]; [4]): 31%
percent inhibition of PKK at 0.56 μM (human PKK mRNA [2]; [4]): 60%
percent inhibition of PKK at 1.67 μM (human PKK mRNA [2]; [4]): 99%
percent inhibition of PKK at 5.00 μM (human PKK mRNA [2]; [4]): 89%
IC50 (human PKK mRNA [2]; 4 point dose response, HepaRG cells, Table 36): 500 nM
percent inhibition of PKK mRNA, 0.19 μM (human PKK mRNA [2]; HepaRG cells, 0.19 μM antisense oligonucleotide): 19%
percent inhibition of PKK mRNA, 0.56 μM (human PKK mRNA [2]; HepaRG cells, 0.56 μM antisense oligonucleotide): 45%
percent inhibition of PKK mRNA, 1.67 μM (human PKK mRNA [2]; HepaRG cells, 1.67 μM antisense oligonucleotide): 91%
percent inhibition of PKK mRNA, 5.00 μM (human PKK mRNA [2]; HepaRG cells, 5.00 μM antisense oligonucleotide): 97%
IC50 (human PKK mRNA [2]; HepaRG cells, 0.19-5.00 μM): 600 nM
% inhibition of PKK mRNA in the transgenic mice liver relative to the PBS control (human PKK mRNA [3]; 2.5 mg/kg/week sc): 13%
% inhibition of PKK mRNA in the transgenic mice liver relative to the PBS control (human PKK mRNA [3]; 5 mg/kg/week sc): 51%
% inhibition of PKK mRNA in the transgenic mice liver relative to the PBS control (human PKK mRNA [3]; 10 mg/kg/week sc): 66%
% inhibition of PKK mRNA in the transgenic mice liver relative to the PBS control (human PKK mRNA [3]; 20 mg/kg/week sc): 79%

546254 (eT*eG*e[5mC]*eA*eA*dG*dT*d[5mC]*dT*d[5mC]*dT*dT*dG*dG*d[5mC]*eA*eA*eA*e[5mC]*eA) [compound 546254]
% inhibition of PKK protein levels in the transgenic mice relative to the PBS control (PKK protein; 2.5 mg/kg/week sc): 0%
% inhibition of PKK protein levels in the transgenic mice relative to the PBS control (PKK protein; 5 mg/kg/week sc): 36%
% inhibition of PKK protein levels in the transgenic mice relative to the PBS control (PKK protein; 10 mg/kg/week sc): 51%
% inhibition of PKK protein levels in the transgenic mice relative to the PBS control (PKK protein; 20 mg/kg/week sc): 76%
% inhibition of PKK mRNA in the cynomolgus monkey liver relative to the PBS control (PKK mRNA): 88%
% inhibition (human PKK mRNA [1]; Table 8): 95%
percent inhibition of PKK at 5.00 μM (human PKK mRNA [2]; HepaRG cells, electroporation, approximately 16 hours, Table 41): 95%
percent inhibition of PKK at 0.19 0μM (human PKK mRNA [2]; 0.19 0μM, HepaRG cells, electroporation, approximately 16 hours, Table 41): 40%
percent inhibition of PKK at 0.56 0μM (human PKK mRNA [2]; 0.56 0μM, HepaRG cells, electroporation, approximately 16 hours, Table 41): 63%
percent inhibition of PKK at 1.67 1μM (human PKK mRNA [2]; 1.67 1μM, HepaRG cells, electroporation, approximately 16 hours, Table 41): 84%
IC50 (human PKK mRNA [2]; 4 point dose response, HepaRG cells, Table 41): 300 nM
percent inhibition of PKK at 0.19 μM (human PKK mRNA [2]; [5]): 51%
percent inhibition of PKK at 0.56 μM (human PKK mRNA [2]; [5]): 66%
percent inhibition of PKK at 1.67 μM (human PKK mRNA [2]; [5]): 80%
percent inhibition of PKK at 5.00 μM (human PKK mRNA [2]; [5]): 91%
IC50 (human PKK mRNA [2]; Table 34, PKK mRNA, HepaRG, electroporation, ~16 h): 200 nM
% inhibition of PKK mRNA in the transgenic mice liver relative to the PBS control (human PKK mRNA [3]; 2.5 mg/kg/week sc): 31%
% inhibition of PKK mRNA in the transgenic mice liver relative to the PBS control (human PKK mRNA [3]; 5 mg/kg/week sc): 55%
% inhibition of PKK mRNA in the transgenic mice liver relative to the PBS control (human PKK mRNA [3]; 10 mg/kg/week sc): 84%
% inhibition of PKK mRNA in the transgenic mice liver relative to the PBS control (human PKK mRNA [3]; 20 mg/kg/week sc): 83%
